GI50 and IC50 data for 12 compounds are collected here from patent publication US9573954B2, “Pyrazolopyrimidine compounds” (University Health Network, priority 2012, dated 2017).

As usually defined, the GI50 is the concentration at which growth is held to half of that of the control. What is called pIC50 is the IC50 on a negative log10 scale, so that one unit is a factor of ten.

pIC50: −log10 of the molar value. A value given as a limit tells only on which side of the number the result lay.

For assay [1], the system named is Ovarian 2393A tumor initiating cells. Kind of assay: Tumor-initiating cell growth inhibition, Alamar Blue assay, ovarian TICs. The class given is cell-based. As to conditions: 144 h; Table 2; ovarian TICs, 6 days, Alamar Blue; read-out: Tumor Initiating Cell GI50 Range Ovarian 2393A. Put shortly: (§1)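 Colon TICs (4,000/well, non-TC plates) and ovarian TICs (1,000/well, TC plates) kept in serum-free DMEM:F12 with B-27, heparin, bFGF and EGF. Compound added after 24 h at 0.1% DMSO, then 9 days (colon) or 6 days (ovarian) at 37° C. GI50 from Alamar Blue fluorescence (ex 544/em 590) after 4 h.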

In assay [2] the test system is breast cancer cells (MDA-MB-231). Put plainly: Cancer cell line growth inhibition, Sulforhodamine B assay, MDA-MB-231. As to conditions: Homo sapiens, 120 h; Table 2; MDA-MB-231, 5 days, SRB; read-out: Cancer Cell Line GI50 Range MDA-MB-231. The class given is cell-based. How it is done:
(§2) Breast cancer cells (MDA-MB-231 and MDA-MB-468), colon cancer cells (HCT116) and ovarian cancer cells (PA-1 and OVCAR-3) were seeded (1000 to 4000 in 80 μl per well depending on the cell growth rate) into 96 well plates 24 hours before compound overlay. Compounds were prepared as 10 mM stock solutions in 100% DMSO which were diluted with DMEM (Dulbecco's Modified Eagle's Medium) cell growth Medium (Invitrogen, Burlington, ON, Canada) containing 10% FBS (Fetal Bovine Serum) to concentrations ranging from 50 nM to 250 μM. Aliquots (20 μl) from each concentration were overlaid to 80 μl of the pre-seeded cells in the 96 well plates to make final concentrations of 10 nM to 50 μM. The cells were cultured for 5 days before the Sulforhodamine B assay (SRB) was performed to determine the compound's cell growth inhibition activity.
(§3) Sulforhodamine B (purchased from Sigma, Oakville, ON, Canada) is a water-soluble dye that binds to the basic amino acids of the cellular proteins. Thus, colorimetric measurement of the bound dye provides an estimate of the total protein mass that is related to the cell number. the cells are fixed in situ by gently aspirating off the culture media and adding 50 μl ice cold 10% Trichloroacetic Acid (TCA) per well and incubate at 4° C. for 30-60 min, The plates are washed with H2O five times and allowed to air dry for 5 min. Addition of 50 μl 0.4% (w/v) SRB solution in 1% (v/v) acetic acid to each well and incubation for 30 min at RT completes the staining reaction. Following staining, plates are washed four times with 1% acetic acid to remove unbound dye and then allowed to air dry for 5 min. The stain is solubilized with 100 μl of 10 mM Tris pH 10.5 per well. Absorbance is read at 570 nm.
(§4) The percentage (%) of relative growth inhibition was calculated by comparing to DMSO treated only cells (100%). GI50's were determined for compounds with cytotoxic activity. The GI50 was calculated using GraphPad PRISM software (GraphPad Software, Inc., San Diego, Calif., USA).
(§5) In Table 2 below, GI50 value ranges for compound examples against breast cancer cell lines (MDA-MB-231), colon cancer cell lines (HCT116) and ovarian cancer cell lines (PA-1) are given.
In general terms: The SRB assay estimates cell density from bound dye.

In the next assay the target is T1, human TTK (Homo sapiens, UniProt P33981).
T1 construct: Active TTK was purchased from Invitrogen as an amino terminal GST fusion of full length human TTK; purchased Invitrogen
T1 sequence (P33981 1-857): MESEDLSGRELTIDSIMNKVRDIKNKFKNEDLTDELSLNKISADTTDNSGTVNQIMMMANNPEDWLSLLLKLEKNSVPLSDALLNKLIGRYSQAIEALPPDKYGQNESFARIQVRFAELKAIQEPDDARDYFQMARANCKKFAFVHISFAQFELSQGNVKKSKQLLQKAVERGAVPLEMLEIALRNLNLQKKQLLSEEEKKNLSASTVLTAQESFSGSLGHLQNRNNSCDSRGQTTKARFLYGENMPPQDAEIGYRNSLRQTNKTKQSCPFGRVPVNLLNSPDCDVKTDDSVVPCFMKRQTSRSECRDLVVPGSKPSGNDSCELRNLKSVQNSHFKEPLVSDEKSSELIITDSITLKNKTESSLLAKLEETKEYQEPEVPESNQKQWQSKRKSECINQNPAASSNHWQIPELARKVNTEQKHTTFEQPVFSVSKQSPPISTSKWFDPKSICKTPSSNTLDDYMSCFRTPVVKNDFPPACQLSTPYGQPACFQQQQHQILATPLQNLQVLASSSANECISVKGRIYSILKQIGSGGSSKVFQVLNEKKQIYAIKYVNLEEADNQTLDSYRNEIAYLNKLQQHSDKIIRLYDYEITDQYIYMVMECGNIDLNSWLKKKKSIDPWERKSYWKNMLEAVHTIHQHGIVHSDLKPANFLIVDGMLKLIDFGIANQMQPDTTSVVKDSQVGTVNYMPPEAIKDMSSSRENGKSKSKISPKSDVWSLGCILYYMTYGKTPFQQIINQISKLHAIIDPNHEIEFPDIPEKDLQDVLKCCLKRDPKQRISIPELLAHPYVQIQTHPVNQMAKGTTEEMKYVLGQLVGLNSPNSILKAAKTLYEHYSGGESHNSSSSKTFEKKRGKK
Put plainly: TTK inhibition assay (indirect ELISA). The assay is classed as biochemical. To be noted: Table 2; 16 μM ATP (asterisk); read-out: TTK IC50 Range. Put shortly:
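Activity detected by indirect ELISA after compounds sat with full-length GST-TTK for 5 min prior to starting the reaction with ATP. IC50 came from a four-parameter logistic curve of % inhibition, calculated against background and uninhibited control wells.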
(An ELISA detects its analyte on a solid surface through an enzyme-linked reagent.)

Assay [3] deals with colon cancer cells (HCT116). Kind of assay: Cancer cell line growth inhibition, Sulforhodamine B assay, HCT116. The class given is cell-based. As to conditions: Homo sapiens, HCT-116, 120 h, Table 2; HCT116, 5 days, SRB; read-out: Cancer Cell Line GI50 Range HCT116. The essentials:
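HCT116 cells, 1000–4000 per well, seeded 24 h ahead, then treated 5 days with compound at 10 nM to 50 μM final in DMEM with 10% FBS. Growth measured by sulforhodamine B staining after TCA fixation, A570; GI50 from inhibition relative to DMSO-only cells.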

Assay [4] has as its system ovarian cancer cells (PA-1). Put plainly: Cancer cell line growth inhibition, Sulforhodamine B assay, PA-1. The assay is classed as cell-based. To be noted: 120 h; Table 2; PA-1, 5 days, SRB; read-out: Cancer Cell Line GI50 Range PA-1. How it is done:
as §2, §3, §4
In Table 1 below, GI50 value ranges for compound examples against breast cancer cell lines (MDA-MB-468), colon cancer cell lines (HCT116) and ovarian cancer cell lines (PA-1) are given.
as §5

Assay [5] deals with Colon 12 tumor initiating cells. Kind of assay: Tumor-initiating cell growth inhibition, Alamar Blue assay, colon TICs. The class given is cell-based. To be noted: 216 h; Table 2; colon TICs, 9 days, Alamar Blue; read-out: Tumor Initiating Cell GI50 Range Colon 12. The essentials: as §1

As for `Cc1cc(-c2cnn3c(NCCC4CCOCC4)cc(Oc4ccccc4)nc23)ccc1C(=O)NC1CC1` [Example B20, N-cyclopropyl-2-methyl-4-(5-phenoxy-7-((2-(tetrahydro-2H-pyran-4-yl)ethyl)amino)pyrazolo[1,5-a]pyrimidin-3-yl)benzamide], the GI50 in assay [1], in assay [2], in assay [3], in assay [4] and in assay [5] was at most 0.1 µM throughout. Further, the pIC50 on human TTK is above 7.00.

In the case of `Cc1cc(-c2cnn3c(NCC4CCOCC4)cc(NC4CCCC4)nc23)ccc1C(=O)NC1CC1` [Example B14, 4-(5-(cyclopentylamino)-7-(((tetrahydro-2H-pyran-4-yl)methyl)amino)pyrazolo[1,5-a]pyrimidin-3-yl)-N-cyclopropyl-2-methylbenzamide], the GI50 in assay [1], in assay [2], in assay [3], in assay [4] and in assay [5] was at most 0.1 µM in each case. In addition, on human TTK, the pIC50 is above 7.00.

For the compound `COCCNc1cc(Oc2ccccc2)nc2c(-c3ccc(C(=O)NC4CC4)c(C)c3)cnn12` [Example B13, N-cyclopropyl-4-(7-((2-methoxyethyl)amino)-5-phenoxypyrazolo[1,5-a]pyrimidin-3-yl)-2-methylbenzamide], the GI50 was 0.1 to 0.5 µM in assay [1]; at most 0.1 µM in assay [2]; at most 0.1 µM in assay [3]; at most 0.1 µM in assay [4]; at most 0.1 µM in assay [5]. Moreover, the pIC50 at human TTK was above 7.00.

As to `O=C(NC1CC1)c1ccc(-c2cnn3c(NCC4CCOCC4)cc(Oc4ccccc4)nc23)cc1F` [Example B8, N-cyclopropyl-2-fluoro-4-(5-phenoxy-7-(((tetrahydro-2H-pyran-4-yl)methyl)amino)pyrazolo[1,5-a]pyrimidin-3-yl)benzamide], the GI50 in assay [1] was 0.1 to 0.5 µM; in assay [2] it was 0.1 to 0.5 µM; in assay [3], 0.1 to 0.5 µM; in assay [4] it was at most 0.1 µM; in assay [5], 0.1 to 0.5 µM. For the same compound, on human TTK, the pIC50 was above 7.00.

In the case of `O=C(NC1CC1)c1ccc(-c2cnn3c(NCC4CCOCC4)cc(Oc4ccccc4)nc23)cc1Cl` [Example B7, 2-chloro-N-cyclopropyl-4-(5-phenoxy-7-(((tetrahydro-2H-pyran-4-yl)methyl)amino)pyrazolo[1,5-a]pyrimidin-3-yl)benzamide], the GI50 in assay [1], in assay [2], in assay [3], in assay [4] and in assay [5] was at most 0.1 µM each time. In addition, the pIC50 at human TTK was above 7.00.

For `Cc1cc(-c2cnn3c(NCC4CCOCC4)cc(OC4CCCC4)nc23)ccc1C(=O)NC1CC1` [Example B21, 4-(5-(cyclopentyloxy)-7-(((tetrahydro-2H-pyran-4-yl)methyl)amino)pyrazolo[1,5-a]pyrimidin-3-yl)-N-cyclopropyl-2-methylbenzamide], the GI50 in assay [2] was 0.1 to 0.5 µM; in assay [3], at most 0.1 µM; in assay [4], at most 0.1 µM. Further, on human TTK, the pIC50 was above 7.00.

In the case of `Cc1cc(-c2cnn3c(NCC4CCOCC4)cc(OC4CCCCC4)nc23)ccc1C(=O)NC1CC1` [Example B23, 4-(5-(cyclohexyloxy)-7-(((tetrahydro-2H-pyran-4-yl)methyl)amino)pyrazolo[1,5-a]pyrimidin-3-yl)-N-cyclopropyl-2-methylbenzamide], the concentration for 50% growth inhibition (GI50) in assay [2], in assay [3] and in assay [4] was 0.1 to 0.5 µM throughout. For the same compound, the pIC50 on human TTK was above 7.00.

On to `Cc1cc(-c2cnn3c(NCC4CCOCC4)cc(NCC(C)(C)O)nc23)ccc1C(=O)NC1CC1` [Example B10, N-cyclopropyl-4-(5-((2-hydroxy-2-methylpropyl)amino)-7-(((tetrahydro-2H-pyran-4-yl)methyl)amino)pyrazolo[1,5-a]pyrimidin-3-yl)-2-methylbenzamide], for which the GI50 in assay [2] is above 0.5 µM; in assay [3], 0.1 to 0.5 µM; in assay [4], 0.1 to 0.5 µM. Besides, on human TTK, the pIC50 was above 7.00.

For `Cc1cc(-c2cnn3c(NC[C@H]4CC[C@H](O)CC4)cc(Oc4ccccc4)nc23)ccc1C(=O)NC1CC1` [Example B31, N-cyclopropyl-4-(7-((((1r,4r)-4-hydroxycyclohexyl)-methyl)amino)-5-phenoxypyrazolo[1,5-a]pyrimidin-3-yl)-2-methylbenzamide], the GI50 in assay [2], in assay [3] and in assay [4] was at most 0.1 µM in each case. Further, on human TTK, the pIC50 is above 7.00.

Take `Cc1cc(-c2cnn3c(NCCC4CCOCC4)cc(Oc4cccnc4)nc23)ccc1C(=O)NC1CC1` [Example B22, N-cyclopropyl-2-methyl-4-(5-(pyridin-3-yloxy)-7-((2-(tetrahydro-2H-pyran-4-yl)ethyl)amino)pyrazolo[1,5-a]pyrimidin-3-yl)benzamide]: the GI50 in assay [2], in assay [3] and in assay [4] was at most 0.1 µM each time. Besides, the negative logarithm of the IC50 (pIC50) on human TTK was above 7.00.

Consider `Cc1cc(-c2cnn3c(NCC4CCOCC4)cc(N4CCOCC4)nc23)ccc1C(=O)NC1CC1` [Example B11, N-cyclopropyl-2-methyl-4-(5-morpholino-7-(((tetrahydro-2H-pyran-4-yl)methyl)amino)pyrazolo[1,5-a]pyrimidin-3-yl)benzamide], for which the GI50 in assay [2], in assay [3] and in assay [4] was 0.1 to 0.5 µM each time. For the same compound, on human TTK, the pIC50 is above 7.00.

With `Cc1cc(-c2cnn3c(NCC(C)C)cc(NC4CCOCC4)nc23)ccc1C(=O)NC1CC1` [Example B26, N-cyclopropyl-4-(7-(isobutylamino)-5-((tetrahydro-2H-pyran-4-yl)amino)pyrazolo[1,5-a]pyrimidin-3-yl)-2-methylbenzamide], the GI50 in assay [2] was 0.1 to 0.5 µM; in assay [3] it was at most 0.1 µM; in assay [4], at most 0.1 µM. The pIC50 on human TTK is above 7.00.
